The values that follow come from patent US20050009893A1, “Treatment of high blood pressure during the acute phase of a stroke” (Solvay Pharmaceuticals GmbH, priority 2001, published 2005).

The test is described as follows: ACCESS study (acute candesartan cilexetil evaluation in stroke survivors): early antihypertensive treatment after acute stroke versus placebo. The test is classed as in vivo. Particulars: 342 enrolled stroke patients. The source says: In order to clarify the question, the ACCESS study (acute candesarten cilexetil evaluation in stroke survivors) was conceived, which has now been completed.
The rational basis of the ACCESS study was the question whether early treatment of elevated blood pressure values in stroke treatment using a substance which affects the renin-angiotensin system in a blocking manner, could reduce the morbidity, mortality and neurological deficits resulting from such strokes. The main question posed related to the use of early antihypertensive treatment of patients with elevated blood pressure values after a stroke. […]
After enrollment of the patients in the study, a randomized therapy with candesartancilexetil or placebo was carried out. Depending upon the measured blood pressure values and patient specific criteria, the therapy was begun with once daily administration of one half to one tablet (corresponding to from 4 to 8 mg candesartancilexetil or placebo). […]

Each structure is given as a SMILES string.

Regarding `CCOc1nc2cccc(C(=O)O)c2n1Cc1ccc(-c2ccccc2-c2nnn[nH]2)cc1` [candesartan], the “cardiovascular end point (number of events) in the course of a twelve month observation period” value (early treatment from 72 hours up to and including seven days after the stroke, placebo group first treated after one week (30 events)) is 17. For the setting “twelve month observation period, 17 vs. 30”, the “difference with respect to the cardiovascular end point in favor of early treatment versus placebo group” value is listed as “about 43%”.
